From US20020155164A1, “System and method for the prevention of infections in human patients using nitric oxide” (priority 2001, published 2002)

Tested on: bacteria
Test: Tests performed in vitro on bacteria
Assay type: cell-based
Settings: many types of bacteria
From the text: The inventors of the instant invention have investigated NO for its use as a sterilizing agent in the prevention and treatment of infections. […] PCT International Application No. PCT/CA99/01123, a published Jun. 2, 2000, discloses a method and an apparatus for the treatment of human respiratory infections by NO inhalation.

[N]=O [NO, nitric oxide]
effect on growth / killing of bacteria: interfere with the growth of and/or kill many types of bacteria
